Measured values as given in patent US20230078913A1, “ANDROGEN RECEPTOR MODULATORS AND METHODS FOR USE AS PROTEOLYSIS TARGETING CHIMERA LIGANDS” (ESSA Pharma, Inc., priority 2019, published 2023).

System: androgen receptor (androgen-induced PSA-luciferase activity in LNCaP cells)
Test: Androgen-induced PSA (6.1 kb)-luciferase reporter assay in LNCaP cells
Assay type: cell-based
Conditions: Homo sapiens; LNCaP cells transiently transfected with PSA (6.1 kb)-luciferase reporter; R1881 (1 nM), 24 h; normalized to maximum androgen-induced activity (vehicle only)
Protocol: To determine the IC50, treatments were normalized to the maximum activity with androgen-induction (in the absence of test compounds, vehicle only) (Table 1).
Luciferase Assay: Lysates were thawed on ice then collected into V-bottom 96-well tissue culture plates. Lysates were centrifuged at 4° C. for 5 minutes at 4000 rpm. To measure luminescence of LNCaP cell lysates the Firefly Luciferase Assay System (Promega) was employed, according to manufacturer's protocol.
Comparisons between treatment and control groups were compared using Two-Way ANOVA with post-hoc Dunnett's and Tukey's tests. Differences were considered statistically significant at P values less than 0.05. Densitometric quantification of relative AR levels was determined by Image.

C[C@H](Oc1ccc(C(C)(C)c2cc(Cl)c(OCCCl)c(C#N)c2)cc1)c1ccnc(NS(C)(=O)=O)n1 [Example A170]
IC50: 651 nM
